Experimental data from ChEMBL document CHEMBL5678818, “Discovery of potent SOS1 inhibitors that block RAS activation via disruption of the RAS-SOS1 interaction” (Proc Natl Acad Sci U S A, 2019).

Experiments:
[1] = tested on: Tyrosine-protein kinase ABL1 (Homo sapiens), P00519 [H396P]; experiment: Inhibition of nonphosphorylated ABL1 H396P mutant (unknown origin) assessed as residual activity at 1000 nM by KINOMEscan analysis relative to control
[2] = target: Wee1-like protein kinase 2 (Homo sapiens) (UniProt P0C1S8); experiment: Inhibition of WEE2 (unknown origin) assessed as residual activity at 1000 nM by KINOMEscan analysis relative to control
Sequence of Wee1-like protein kinase 2 (Homo sapiens) (P0C1S8 whole entry, looked up): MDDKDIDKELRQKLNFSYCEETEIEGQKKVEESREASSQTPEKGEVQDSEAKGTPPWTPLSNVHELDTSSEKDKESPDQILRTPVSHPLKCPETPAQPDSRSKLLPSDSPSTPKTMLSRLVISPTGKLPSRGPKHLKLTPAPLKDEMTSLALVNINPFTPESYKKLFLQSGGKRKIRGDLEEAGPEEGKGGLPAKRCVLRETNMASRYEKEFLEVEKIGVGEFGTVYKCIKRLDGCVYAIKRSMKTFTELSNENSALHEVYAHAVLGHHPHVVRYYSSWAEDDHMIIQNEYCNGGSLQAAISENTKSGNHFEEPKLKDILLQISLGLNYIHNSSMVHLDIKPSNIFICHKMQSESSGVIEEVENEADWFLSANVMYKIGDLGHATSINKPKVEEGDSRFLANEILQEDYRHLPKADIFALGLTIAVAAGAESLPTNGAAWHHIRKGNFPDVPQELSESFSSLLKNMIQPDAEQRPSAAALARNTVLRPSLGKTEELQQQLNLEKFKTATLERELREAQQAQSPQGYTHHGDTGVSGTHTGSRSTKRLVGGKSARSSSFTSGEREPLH

[3] = target: T1, Tyrosine-protein kinase receptor TYRO3 (Homo sapiens) (UniProt Q06418); experiment: Inhibition of TYRO3 (unknown origin) assessed as residual activity at 1000 nM by KINOMEscan analysis relative to control
T1 sequence (whole entry): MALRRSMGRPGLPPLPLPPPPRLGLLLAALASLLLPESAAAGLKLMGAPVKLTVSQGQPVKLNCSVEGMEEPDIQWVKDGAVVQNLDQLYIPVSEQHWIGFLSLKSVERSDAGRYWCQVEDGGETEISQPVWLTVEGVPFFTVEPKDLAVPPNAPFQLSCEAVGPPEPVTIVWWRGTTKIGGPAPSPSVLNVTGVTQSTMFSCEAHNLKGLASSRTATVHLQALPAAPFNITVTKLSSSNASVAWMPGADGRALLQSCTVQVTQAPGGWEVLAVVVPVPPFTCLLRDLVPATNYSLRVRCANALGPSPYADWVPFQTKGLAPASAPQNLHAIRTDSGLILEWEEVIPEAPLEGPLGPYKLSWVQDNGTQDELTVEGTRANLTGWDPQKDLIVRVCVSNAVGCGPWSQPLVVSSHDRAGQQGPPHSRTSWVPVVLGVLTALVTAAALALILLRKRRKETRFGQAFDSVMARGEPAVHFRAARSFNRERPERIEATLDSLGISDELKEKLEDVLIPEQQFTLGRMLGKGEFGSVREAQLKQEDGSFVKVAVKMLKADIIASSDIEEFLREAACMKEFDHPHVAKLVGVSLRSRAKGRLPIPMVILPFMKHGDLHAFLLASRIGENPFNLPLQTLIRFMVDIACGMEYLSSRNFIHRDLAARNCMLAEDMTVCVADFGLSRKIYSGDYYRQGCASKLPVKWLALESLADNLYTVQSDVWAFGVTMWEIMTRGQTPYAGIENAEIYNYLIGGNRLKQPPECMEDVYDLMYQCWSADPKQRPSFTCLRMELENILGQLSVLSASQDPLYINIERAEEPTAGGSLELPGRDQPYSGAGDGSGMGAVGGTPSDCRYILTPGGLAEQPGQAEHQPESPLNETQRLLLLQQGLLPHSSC

[4] = target: Bone morphogenetic protein receptor type-1B (Homo sapiens) (UniProt O00238); experiment: Inhibition of BMPR1B (unknown origin) assessed as residual activity at 1000 nM by KINOMEscan analysis relative to control
[5] = target: T2, Serine/threonine-protein kinase Nek2 (Homo sapiens) (UniProt P51955); experiment: Inhibition of NEK2 (unknown origin) assessed as residual activity at 1000 nM by KINOMEscan analysis relative to control
T2 sequence (whole entry): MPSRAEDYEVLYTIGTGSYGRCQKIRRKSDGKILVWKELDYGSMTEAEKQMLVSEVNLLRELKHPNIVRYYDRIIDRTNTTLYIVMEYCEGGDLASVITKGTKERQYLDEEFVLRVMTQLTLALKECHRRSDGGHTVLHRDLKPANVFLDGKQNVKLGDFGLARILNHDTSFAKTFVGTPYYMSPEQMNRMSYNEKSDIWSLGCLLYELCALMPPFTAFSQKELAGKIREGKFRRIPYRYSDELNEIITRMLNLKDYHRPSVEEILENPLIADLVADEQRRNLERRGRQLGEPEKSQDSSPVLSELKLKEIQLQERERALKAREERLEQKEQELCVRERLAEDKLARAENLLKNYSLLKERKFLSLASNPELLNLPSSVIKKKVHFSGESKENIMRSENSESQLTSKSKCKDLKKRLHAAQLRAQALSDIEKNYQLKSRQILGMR

[6] = target: Myosin light chain kinase, smooth muscle (Homo sapiens) (UniProt Q15746); experiment: Inhibition of MLCK (unknown origin) assessed as residual activity at 1000 nM by KINOMEscan analysis relative to control
Sequence of Myosin light chain kinase, smooth muscle (Homo sapiens) (Q15746 whole entry): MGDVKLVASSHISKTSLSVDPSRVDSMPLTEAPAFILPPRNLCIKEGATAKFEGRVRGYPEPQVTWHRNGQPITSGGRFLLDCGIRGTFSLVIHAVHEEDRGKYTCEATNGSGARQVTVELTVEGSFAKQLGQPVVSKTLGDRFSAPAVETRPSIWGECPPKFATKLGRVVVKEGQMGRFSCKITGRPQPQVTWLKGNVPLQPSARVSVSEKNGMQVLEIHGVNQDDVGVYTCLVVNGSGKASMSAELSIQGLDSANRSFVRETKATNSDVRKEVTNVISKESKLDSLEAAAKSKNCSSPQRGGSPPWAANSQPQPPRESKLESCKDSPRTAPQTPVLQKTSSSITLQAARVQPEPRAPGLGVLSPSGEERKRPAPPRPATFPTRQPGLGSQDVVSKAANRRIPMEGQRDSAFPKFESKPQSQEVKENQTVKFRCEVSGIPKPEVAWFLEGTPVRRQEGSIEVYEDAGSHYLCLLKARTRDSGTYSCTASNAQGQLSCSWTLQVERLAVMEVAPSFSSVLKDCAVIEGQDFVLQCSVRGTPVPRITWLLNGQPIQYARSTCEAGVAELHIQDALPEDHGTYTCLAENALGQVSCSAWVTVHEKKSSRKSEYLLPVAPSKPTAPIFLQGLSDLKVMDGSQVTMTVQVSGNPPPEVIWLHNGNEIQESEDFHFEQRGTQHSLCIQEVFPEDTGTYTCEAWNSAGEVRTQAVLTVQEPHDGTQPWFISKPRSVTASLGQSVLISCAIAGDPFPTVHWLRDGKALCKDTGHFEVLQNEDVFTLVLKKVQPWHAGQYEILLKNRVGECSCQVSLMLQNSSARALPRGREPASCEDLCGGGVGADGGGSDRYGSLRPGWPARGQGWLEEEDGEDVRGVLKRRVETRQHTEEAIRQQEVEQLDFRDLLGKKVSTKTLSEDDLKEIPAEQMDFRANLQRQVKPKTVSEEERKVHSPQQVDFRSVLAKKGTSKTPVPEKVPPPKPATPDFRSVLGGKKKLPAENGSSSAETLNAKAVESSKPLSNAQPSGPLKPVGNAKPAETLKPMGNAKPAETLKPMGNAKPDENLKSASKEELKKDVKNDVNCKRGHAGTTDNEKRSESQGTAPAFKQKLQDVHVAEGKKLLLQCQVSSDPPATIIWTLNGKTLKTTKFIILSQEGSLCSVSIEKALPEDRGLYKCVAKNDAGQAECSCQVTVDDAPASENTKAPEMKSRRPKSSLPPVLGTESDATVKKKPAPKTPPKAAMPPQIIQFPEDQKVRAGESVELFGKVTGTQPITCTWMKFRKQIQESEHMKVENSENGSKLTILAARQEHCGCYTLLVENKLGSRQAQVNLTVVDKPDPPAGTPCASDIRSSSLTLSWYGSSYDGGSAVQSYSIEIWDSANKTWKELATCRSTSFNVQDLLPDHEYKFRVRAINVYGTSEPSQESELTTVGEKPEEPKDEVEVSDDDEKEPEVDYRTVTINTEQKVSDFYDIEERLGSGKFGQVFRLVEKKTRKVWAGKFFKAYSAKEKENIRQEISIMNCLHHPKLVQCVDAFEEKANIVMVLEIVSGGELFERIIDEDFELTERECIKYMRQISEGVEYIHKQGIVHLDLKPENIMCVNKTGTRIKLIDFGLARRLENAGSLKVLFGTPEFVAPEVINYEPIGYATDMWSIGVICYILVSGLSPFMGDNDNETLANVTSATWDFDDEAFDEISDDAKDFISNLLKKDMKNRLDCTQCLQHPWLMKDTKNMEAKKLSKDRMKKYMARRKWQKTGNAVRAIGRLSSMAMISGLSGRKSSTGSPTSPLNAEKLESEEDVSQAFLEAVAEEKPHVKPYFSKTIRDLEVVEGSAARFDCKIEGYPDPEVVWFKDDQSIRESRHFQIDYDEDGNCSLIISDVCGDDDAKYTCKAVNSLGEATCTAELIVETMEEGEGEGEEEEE

[7] = target: Protein-tyrosine kinase 6 (Homo sapiens) (UniProt Q13882); experiment: Inhibition of BRK (unknown origin) assessed as residual activity at 1000 nM by KINOMEscan analysis relative to control
Sequence of Protein-tyrosine kinase 6 (Homo sapiens) (Q13882 whole entry, looked up): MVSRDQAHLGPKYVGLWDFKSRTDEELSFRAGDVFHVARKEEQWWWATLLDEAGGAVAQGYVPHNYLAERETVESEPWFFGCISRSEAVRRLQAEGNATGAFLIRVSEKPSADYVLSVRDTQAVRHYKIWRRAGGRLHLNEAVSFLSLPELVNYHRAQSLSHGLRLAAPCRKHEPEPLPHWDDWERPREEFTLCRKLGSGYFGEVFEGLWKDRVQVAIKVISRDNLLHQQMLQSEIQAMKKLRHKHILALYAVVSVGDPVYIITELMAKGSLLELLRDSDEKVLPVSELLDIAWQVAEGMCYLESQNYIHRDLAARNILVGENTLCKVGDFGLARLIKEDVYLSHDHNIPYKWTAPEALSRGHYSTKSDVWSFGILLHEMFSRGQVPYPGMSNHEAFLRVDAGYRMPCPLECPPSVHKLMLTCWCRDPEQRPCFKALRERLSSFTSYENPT

[8] = target: T3, Megakaryocyte-associated tyrosine-protein kinase (Homo sapiens) (UniProt P42679); experiment: Inhibition of CTK (unknown origin) assessed as residual activity at 1000 nM by KINOMEscan analysis relative to control
T3 sequence (whole entry): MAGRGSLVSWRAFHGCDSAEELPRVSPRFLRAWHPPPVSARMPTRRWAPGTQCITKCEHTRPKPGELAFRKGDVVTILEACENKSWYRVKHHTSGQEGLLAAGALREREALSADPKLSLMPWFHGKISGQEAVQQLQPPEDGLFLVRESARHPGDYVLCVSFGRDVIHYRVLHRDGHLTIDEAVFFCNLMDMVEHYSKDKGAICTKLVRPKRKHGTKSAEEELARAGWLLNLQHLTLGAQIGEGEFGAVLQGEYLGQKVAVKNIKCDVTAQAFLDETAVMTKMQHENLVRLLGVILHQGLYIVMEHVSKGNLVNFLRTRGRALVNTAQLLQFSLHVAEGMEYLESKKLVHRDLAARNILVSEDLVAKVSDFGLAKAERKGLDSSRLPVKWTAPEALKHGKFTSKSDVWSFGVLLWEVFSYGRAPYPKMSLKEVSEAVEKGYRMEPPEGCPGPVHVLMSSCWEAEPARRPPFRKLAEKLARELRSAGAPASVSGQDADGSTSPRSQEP

[9] = target: Mitogen-activated protein kinase kinase kinase 9 (Homo sapiens) (UniProt P80192); experiment: Inhibition of MLK1 (unknown origin) assessed as residual activity at 1000 nM by KINOMEscan analysis relative to control
[10] = target: Mast/stem cell growth factor receptor Kit (Homo sapiens) (UniProt P10721); experiment: Inhibition of autoinhibited KIT (unknown origin) assessed as residual activity at 1000 nM by KINOMEscan analysis relative to control
Sequence of Mast/stem cell growth factor receptor Kit (Homo sapiens) (P10721 whole entry, the tested form may be a part): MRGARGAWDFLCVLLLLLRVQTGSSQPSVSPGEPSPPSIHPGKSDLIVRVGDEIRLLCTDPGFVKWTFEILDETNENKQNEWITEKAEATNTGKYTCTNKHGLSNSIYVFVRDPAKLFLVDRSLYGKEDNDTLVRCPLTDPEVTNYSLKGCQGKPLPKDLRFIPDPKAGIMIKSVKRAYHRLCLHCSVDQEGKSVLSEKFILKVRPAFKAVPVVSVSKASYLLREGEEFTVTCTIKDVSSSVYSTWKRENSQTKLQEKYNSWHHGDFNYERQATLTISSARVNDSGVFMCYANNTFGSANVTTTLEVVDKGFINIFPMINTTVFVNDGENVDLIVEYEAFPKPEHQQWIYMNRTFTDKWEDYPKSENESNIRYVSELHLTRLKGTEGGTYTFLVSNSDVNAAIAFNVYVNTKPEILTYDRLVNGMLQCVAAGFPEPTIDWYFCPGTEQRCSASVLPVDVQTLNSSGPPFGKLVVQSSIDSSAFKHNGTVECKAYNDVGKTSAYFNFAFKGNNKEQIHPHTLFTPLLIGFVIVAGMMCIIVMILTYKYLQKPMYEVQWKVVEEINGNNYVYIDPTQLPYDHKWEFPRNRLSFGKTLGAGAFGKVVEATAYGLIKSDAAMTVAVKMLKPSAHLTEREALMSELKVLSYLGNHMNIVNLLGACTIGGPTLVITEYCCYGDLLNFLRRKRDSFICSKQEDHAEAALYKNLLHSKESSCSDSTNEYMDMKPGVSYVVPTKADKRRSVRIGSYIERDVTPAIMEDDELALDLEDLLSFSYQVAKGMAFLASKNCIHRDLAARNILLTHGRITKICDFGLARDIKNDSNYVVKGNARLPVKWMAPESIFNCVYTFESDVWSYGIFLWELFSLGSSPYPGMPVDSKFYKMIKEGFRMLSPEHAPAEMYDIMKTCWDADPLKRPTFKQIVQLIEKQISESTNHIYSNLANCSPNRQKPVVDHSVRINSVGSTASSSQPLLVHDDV

[11] = target: Ribosomal protein S6 kinase alpha-1 (Homo sapiens) (UniProt Q15418); experiment: Inhibition of N-terminal RSK1 kinetic domain 1 (unknown origin) assessed as residual activity at 1000 nM by KINOMEscan analysis relative to control
Sequence of Ribosomal protein S6 kinase alpha-1 (Homo sapiens) (Q15418 whole entry, the tested form may be a part, canonical isoform): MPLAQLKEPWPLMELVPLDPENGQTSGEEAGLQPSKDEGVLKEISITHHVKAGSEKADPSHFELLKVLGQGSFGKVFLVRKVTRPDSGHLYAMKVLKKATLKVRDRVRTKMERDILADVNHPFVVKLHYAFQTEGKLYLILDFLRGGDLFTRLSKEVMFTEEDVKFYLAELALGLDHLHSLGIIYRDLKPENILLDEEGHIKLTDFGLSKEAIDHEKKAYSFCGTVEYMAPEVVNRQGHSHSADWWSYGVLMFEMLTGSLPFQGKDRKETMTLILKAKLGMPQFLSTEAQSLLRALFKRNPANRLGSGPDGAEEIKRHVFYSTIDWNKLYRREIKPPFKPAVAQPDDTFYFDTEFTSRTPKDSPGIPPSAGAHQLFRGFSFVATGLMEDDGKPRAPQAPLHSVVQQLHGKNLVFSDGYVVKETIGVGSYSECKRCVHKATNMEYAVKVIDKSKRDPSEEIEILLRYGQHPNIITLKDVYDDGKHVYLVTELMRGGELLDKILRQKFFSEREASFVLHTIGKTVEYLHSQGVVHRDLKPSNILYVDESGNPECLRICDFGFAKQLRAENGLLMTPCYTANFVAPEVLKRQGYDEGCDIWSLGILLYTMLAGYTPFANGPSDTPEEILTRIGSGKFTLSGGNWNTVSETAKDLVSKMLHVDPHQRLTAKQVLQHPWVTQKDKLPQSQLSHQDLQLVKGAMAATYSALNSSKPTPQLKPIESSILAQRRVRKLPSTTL

[12] = target: Casein kinase I isoform gamma-3 (Homo sapiens) (UniProt Q9Y6M4); experiment: Inhibition of CSNK1G3 (unknown origin) assessed as residual activity at 1000 nM by KINOMEscan analysis relative to control
Sequence of Casein kinase I isoform gamma-3 (Homo sapiens) (Q9Y6M4 whole entry, looked up, canonical isoform): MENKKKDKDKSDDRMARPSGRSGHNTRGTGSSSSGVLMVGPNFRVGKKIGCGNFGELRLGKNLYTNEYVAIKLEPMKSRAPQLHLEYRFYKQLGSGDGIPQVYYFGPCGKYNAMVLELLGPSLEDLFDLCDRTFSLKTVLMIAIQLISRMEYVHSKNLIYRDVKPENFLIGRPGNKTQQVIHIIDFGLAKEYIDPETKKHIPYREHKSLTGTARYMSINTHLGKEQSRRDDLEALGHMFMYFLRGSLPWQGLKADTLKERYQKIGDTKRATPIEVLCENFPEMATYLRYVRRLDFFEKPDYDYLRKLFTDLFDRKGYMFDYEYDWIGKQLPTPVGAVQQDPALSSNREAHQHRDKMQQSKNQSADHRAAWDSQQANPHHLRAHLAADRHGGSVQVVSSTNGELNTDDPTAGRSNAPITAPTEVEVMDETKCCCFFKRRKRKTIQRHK

| SMILES | Activity [1] [%] | Activity [2] [%] | Activity [3] [%] | Activity [4] [%] | Activity [5] [%] | Activity [6] [%] | Activity [7] [%] | Activity [8] [%] | Activity [9] [%] | Activity [10] [%] | Activity [11] [%] | Activity [12] [%] |
| --- | --- | --- | --- | --- | --- | --- | --- | --- | --- | --- | --- | --- |
| COc1cc2nc(C)nc(N[C@H](C)c3cccc(-c4cn[nH]c4)c3)c2cc1OC | 71 | 65 | 66 | 98 | 89 | 100 | 57 | 99 | 84 | 100 | 95 | 80 |
| COc1cc2ncnc(N[C@H](C)c3cccc4ccccc34)c2cc1OC | 100 | 100 | 90 | 94 | 98 | 100 | 100 | 62 | 100 | 93 | 76 | 100 |
